Laboratory results reported in patent US20070031398A1, “One of several enzyme-containing compounds, dietetic food products and drugs produced from and the use therefor for medical purpose” (MUCOS PHARMA GmbH & Co., priority 2003, published 2007).

Test system: prostate carcinomas
Test: concomitant therapy during treatment of carcinomas
Format: in vivo
Conditions: prophylactic and therapeutic effects
Description: This applies both to the period before, during and at defined intervals after the tumor-destructive therapy, e.g. an operation, chemotherapy and/or radiotherapy. The reduced intake of micronutrients (e.g. vitamins, trace elements) which is caused by nausea, reduced food intake, vomiting, diarrhea and sweating is compensated. This improves the patient's tolerance of the treatment, increases the response to the therapy and improves the patient's quality of life. […] Overall, the efficacy of the tumor-destructive therapy is improved.

CC(C)=CCC/C(C)=C/C=C/C(C)=C/C=C/C(C)=C/C=C/C=C(C)/C=C/C=C(C)/C=C/C=C(\C)CCC=C(C)C [lycopene]
incidence and aggressiveness of prostate carcinomas: reduction in the incidence and aggressiveness
